Data published in patent publication US8853424B2 (Japan Science and Technology Agency, priority 2008, dated 2014).
Values belong to the molecule of their own block, whether it stands above or below them.

Tests used:
transglutaminase (TGase) = experiment: Measurement of TG (TGase inhibitory activity, monodansyl cadaverine / N,N-dimethylcasein fluorescence, FDSS 3000); type: biochemical
In short: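 Compound (1 μL of 10 mM stock) added to 0.1 mL reaction: 100 mM HEPES-NaOH pH 7.5, 1 mM CaCl2, 20 μM monodansyl cadaverine, 0.05 mg/mL N,N-dimethylcasein, 5 μg/mL TGase. Rate of fluorescence change at 340 nm measured; DMSO control set to 100; TG50 is the concentration halving activity.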

[1] = tested on: Truncated N-terminal huntington 150 Q-EGFP-Neuron 2a cells; experiment: Measurement of x-Fold (polyglutamine aggregation inhibitory activity); type: cell-based
Description: In the present invention, the polyglutamine aggregation inhibitory activity (x-Fold) can be measured, for example, by the method described in the Example.
The number of the aggregated cells, and the total number of cells were counted by Array Scan V T1 (manufactured by Cellomics, Pittuburg, USA), and the ratio of the aggregated cells to the total number of cells was determined (x-Fold). […]

[2] = TGase activity with compound (10 mM, 1 μL in 0.1 ml enzyme reaction solution), DMSO control taken as 100
[3] = ratio of aggregated cells to total number of cells, compound 20 μM, 20 hr, almost 1 without compound, smaller = stronger inhibition
[4] = TGase inhibitory activity value, Table 1
[5] = polyglutamine aggregation inhibitory activity, Table 1
[6] = TGase inhibitory activity measurement, unit not given
[7] = polyglutamine aggregation, Truncated N-terminal huntington 150 Q-EGFP-Neuron 2a cells

TGase activity remaining (% of DMSO control = 100) (transglutaminase (TGase); [2]): 97
TGase activity remaining (% of DMSO control = 100) (transglutaminase (TGase); TGase inhibitory activity value, Table 1, listed as 6001): 97
Molecule: OB(c1ccc(C(F)(F)F)cc1)c1ccc(C(F)(F)F)cc1 [Example 75, bis(4-trifluoromethylphenyl)borinic acid]
x-Fold ([1]; polyglutamine aggregation inhibitory activity, Table 1, listed as 6001): 0.88
x-Fold [1, 3]: 0.88

TGase activity remaining (% of DMSO control = 100) (transglutaminase (TGase); [2]): 108
TGase activity remaining (% of DMSO control = 100) (transglutaminase (TGase); [4]): 108
Molecule: Cc1ccc(NCCOBc2ccc(COCc3ccc(BOCCNc4ccc(C)cc4)cc3)cc2)cc1 [Example 362, bis(4-(4-methylphenylaminoethoxyboryl)benzyl)ether]
x-Fold [1, 5]: 1.08
x-Fold [1, 3]: 1.08

TGase activity remaining (% of DMSO control = 100) (transglutaminase (TGase); [2]): 85
TGase activity remaining (% of DMSO control = 100) (transglutaminase (TGase); [4]): 85
Molecule: bis((4,4′-phenyldimethylaminoethoxyboryl)benzyloxybenzyl)dimethylamino-ethoxyborane [Example 191]
x-Fold [1, 5]: 1.04
x-Fold [1, 3]: 1.04

TGase activity remaining (% of DMSO control = 100) (transglutaminase (TGase); [2]): 88
TGase activity remaining (% of DMSO control = 100) (transglutaminase (TGase); [4]): 88
Molecule: CC(C)(C)c1cc(B(OCCN)c2ccccc2)c2c(c1)C(C)(C)c1cc(C(C)(C)C)cc(B(OCCN)c3ccccc3)c1O2 [Example 378, 4,5-di(phenylaminoethoxyboryl)-2,7-di-tert-butyl-9,9-dimethylxanthrene]
x-Fold [1, 5]: 0.79
x-Fold [1, 3]: 0.79

TGase activity remaining (% of DMSO control = 100) (transglutaminase (TGase); [2]): 108
TGase activity remaining (% of DMSO control = 100) (transglutaminase (TGase); [6]): 108
Molecule: NCCC(N)C(=O)OB(c1ccc(Oc2ccc(B(OC(=O)C(N)CCN)c3cccc4ccccc34)cc2)cc1)c1cccc2ccccc12 (stereo not drawn) [Example 445, bis(4,4′-(naphthyl 2,4-diaminopropionic acid boryl)phenyl)ether]
x-Fold [1, 7]: 0.49
x-Fold [1, 3]: 0.49

TGase activity remaining (% of DMSO control = 100) (transglutaminase (TGase); [2]): 94
TGase activity remaining (% of DMSO control = 100) (transglutaminase (TGase); TGase inhibitory activity value, Table 1, listed as 4140): 94
Molecule: OB(c1ccc(Cl)c(F)c1)c1ccc(Cl)c(F)c1 [Example 231, di(3-fluoro-4-chlorophenyl)borinic acid]
x-Fold ([1]; polyglutamine aggregation inhibitory activity, Table 1, listed as 4140): 1.01
x-Fold [1, 3]: 1.01

TGase activity remaining (% of DMSO control = 100) (transglutaminase (TGase); [2]): 21
TGase activity remaining (% of DMSO control = 100) (transglutaminase (TGase); [4]): 21
Molecule: COCOCc1ccc(B(OCCN(C)C)c2ccc(Oc3ccc(B(OCCN(C)C)c4ccccc4)cc3)cc2)cc1 [Example 167, (4-(phenyl-dimethylaminoethoxyboryl)phenyl)-(4′-(methoxymethoxymethylphenyl-dimethylaminoethoxyboryl)phenyl)ether]
x-Fold [1, 5]: 0.71
x-Fold [1, 3]: 0.71

TGase activity remaining (% of DMSO control = 100) (transglutaminase (TGase); [2]): 56
Molecule: NC(=O)CC(N)C(=O)OB(c1ccccc1)c1ccc(Oc2ccc(B(OC(=O)C(N)CC(N)=O)c3ccccc3)cc2)cc1 (stereo not drawn) [Example 390, bis(4,4′-(phenyl-asparagineboryl)phenyl)ether]
x-Fold [1, 3]: 0.59

More lines, now with the values behind:

Molecule: NCCOB(c1cccc(COCc2cccc(B(OCCN)c3cccc4ccccc34)c2)c1)c1cccc2ccccc12 [Example 376, bis(3-(1-naphthylaminoethoxyboryl)benzyl)ether]
TGase activity remaining (% of DMSO control = 100) (transglutaminase (TGase); [2]): 75
TGase activity remaining (% of DMSO control = 100) (transglutaminase (TGase); [4]): 75
x-Fold [1, 5]: 0.93
x-Fold [1, 3]: 0.93

Molecule: Cc1cc(B(O)c2ccc(COCc3ccc(B(O)c4ccc(Cl)c(C)c4)cc3)cc2)ccc1Cl [Example 338, bis(4-(4-chloro-3-methyl-phenyl)hydroxyborylbenzyl)ether]
TGase activity remaining (% of DMSO control = 100) (transglutaminase (TGase); [2]): 110
TGase activity remaining (% of DMSO control = 100) (transglutaminase (TGase); TGase inhibitory activity value, Table 1, listed as 693): 110
x-Fold ([1]; polyglutamine aggregation inhibitory activity, Table 1, listed as 693): 0.83
x-Fold [1, 3]: 0.83

Molecule: NCCOB(c1cc(F)cc(Cl)c1)c1cc(F)cc(Cl)c1 [Example 99, aminoethyl bis(3-chloro-5-fluorophenyl)borinate]
TGase activity remaining (% of DMSO control = 100) (transglutaminase (TGase); [2]): 109
TGase activity remaining (% of DMSO control = 100) (transglutaminase (TGase); [4]): 109
x-Fold [1, 5]: 0.73
x-Fold [1, 3]: 0.73

Molecule: NCCNCCOB(c1ccccc1)c1ccc(COCc2ccc(B(OCCNCCN)c3ccccc3)cc2)cc1 [Example 399, bis(4,4′-(phenyl-N-aminoethyl-aminoethoxyboryl)benzyl)ether]
TGase activity remaining (% of DMSO control = 100) (transglutaminase (TGase); [2]): 53
TGase activity remaining (% of DMSO control = 100) (transglutaminase (TGase); [6]): 53
x-Fold [1, 7]: 0.96
x-Fold [1, 3]: 0.96

Molecule: c1ccc(B2OCCN3CCN(CCOB(c4ccccc4)c4cccc(c4)COCc4cccc2c4)CC3)cc1 [Example 173, (3,3′-(phenylpiperazino-O,O-ethoxyboryl)benzyl)ether]
TGase activity remaining (% of DMSO control = 100) (transglutaminase (TGase); [2]): 122
TGase activity remaining (% of DMSO control = 100) (transglutaminase (TGase); [4]): 122
x-Fold [1, 5]: 1.06
x-Fold [1, 3]: 1.06

Molecule: c1ccc(B(OC(c2ccccc2)c2ccccn2)c2ccccc2COCc2ccccc2B(OC(c2ccccc2)c2ccccn2)c2ccccc2)cc1 (stereo not drawn) [Example 133, (2-pyridyl-phenylmethoxyphenylboryl 2-benzyl)ether]
TGase activity remaining (% of DMSO control = 100) (transglutaminase (TGase); [2]): 106
TGase activity remaining (% of DMSO control = 100) (transglutaminase (TGase); [4]): 106
x-Fold [1, 5]: 1.00
x-Fold [1, 3]: 1.00
